Results on eight compounds are retold here after patent publication US11878047B2, “ATF5 peptide variants and uses thereof” (Sapience Therapeutics, Inc., priority 2018, dated 2024).

pEC50: −log10 of the molar value. Like-named read-outs stand apart in the source and are kept apart here. Ends that are not written are not given here. Bounds are passed on as bounds.

What all share (assay type): cell-based, human
The subject of series [1] is HL60 cells. Put plainly: HL60 cell viability (cytotoxicity) assay, Annexin V FITC/PI flow cytometry. Here is the method:
HL60 PML suspension cells were set at a density of 3.5×10^3 cells/well in 150 μL of RPMI+1.5% fetal bovine serum (FBS) in a 96 well dish. ST-3, reconstituted at a concentration of 10 mg/mL in 20 mM His, pH 7.5, was added to each well at a volume of 50 μL to a final concentration range of 0-80 μM. Cells were incubated with ST-3 for 48 hours at 37° C. Cell viability was quantified by flow cytometry using an Abcam Annexin V FITC apoptosis detection kit. Briefly, cells were washed with PBS and resuspended in 1× assay buffer containing Annexin V FITC and propidium iodide (PI). Annexin V detects apoptotic cells, and PI stains dead cells. After staining, apoptotic cells show green fluorescence, dead cells show red and green fluorescence, and live cells show little or no fluorescence. Cells were selected for analysis based on forward scatter (FSC) vs. side scatter (SSC), and analyzed by BD Accuri C6 Plus flow cytometer to detect Annexin V-FITC binding (Ex=488 nm; Em=530 nm) using FITC signal detector and PI staining by the phycoerythrin emission signal detector. Percentage of Annexin V^low and PI^low were quantified and presented as % Viability.
Lyophilized ST-3 or ST-3 with glycine (ST-4) or alanine (ST-5) substituted for cysteine at amino acid position 21 was freshly reconstituted in histidine buffer to a stock solution of 5 mg/mL and added to cells at a final concentration range of 0-40 μM. Cells were incubated with ATF5 peptide for 48 hours prior to quantification of cell viability.
(§1) ST-13 was further examined in various human cancer cell lines, as was a second retro-inverso variant, ST-14. Suspension cells (HL60, AML14, or SET2) were set at a density of 3.5×10^3 cells/well in 150 μL of RPMI+1.5% fetal bovine serum (FBS) in a tissue culture-treated 96 well dish. ATF5 peptide, reconstituted at a concentration of 10 mg/mL in 20 mM His, pH 7.5, was added to each well at a volume of 50 μL to a final concentration range of 0-80 μM. Cells were incubated with peptide for 48 hours at 37° C. Cell viability was quantified by flow cytometry using an Abcam Annexin V FITC apoptosis detection kit. Briefly, cells were washed with PBS and resuspended in 1× assay buffer containing Annexin V FITC and propidium iodide (PI). Cells were analyzed by BD Accuri C6 Plus flow cytometer to detect Annexin V-FITC binding (Ex=488 nm; Em=530 nm) using FITC signal detector, and to detect PI staining using the phycoerythrin emission signal detector. Percentage of Annexin V^low and PI^low were quantified and presented as % Viability. EC50 values were calculated using GraphPad Prism v.7 XML.

Series [2] deals with AML14 acute myeloid leukemia cells. Here is the method: as §1
The test system of series [3] is SET2 acute myeloid leukemia cells. Here is the method: as §1
Series [4] relates to MCF7 breast cancer cells. How it is done: Additionally, adherent A375, MCF7, U251, DU145, U87, and A549 cells were set at a density of 3.5×10^3 cells/well in 200 μL of media on day −1. On day 0, media was removed and replenished with 150 μL of fresh media, and cells were treated with ATF5 peptide as described. Following a 48-hour incubation at 37° C., floating cells were collected, adherent cells were washed with Dulbecco's Phosphate Buffered Saline (DPBS), dissociated from the dish with 50 μL 2.5% trypsin at RT, and combined with floating cells. Cell viability was determined as described above for suspension cells or by MTT assay (MCF7 cells). Alternatively, cells were gently removed from the cell culture plate following trypsinization with 2.5% trypsin, and cell viability was quantified by flow cytometry using an Abcam Annexin V FITC apoptosis detection kit, as described above.

The test system of series [5] is neoplastic cells / wide range of tumor cell types. Nature of the series: Cytotoxic activity across tumor cell types. Here is the method:
as §1, with “Briefly, cells were washed with PBS and resuspended in 1× assay buffer containing Annexin V FITC and propidium iodide (PI).” left out, “XML. […] Cell viability was determined as described above for suspension cells or by MTT assay (MCF7 cells). Alternatively, cells were gently removed from the cell culture plate following trypsinization with 2.5% trypsin, and cell viability was quantified by flow cytometry using an Abcam Annexin V FITC apoptosis detection kit, as described above.” for “XML.”

Where [6] appears, read: HL60 cell viability assay, 48 hours.

As to `CC[C@@H](C)[C@@H](NC(=O)[C@@H](CCCCN)NC(=O)[C@H](NC(=O)[C@@H](Cc1c[nH]c2ccccc12)NC(=O)[C@@H](Cc1ccccc1)NC(=O)[C@@H](CCC(N)=O)NC(=O)[C@@H](CC(N)=O)NC(=O)[C@@H](CCCNC(=N)N)NC(=O)[C@@H](CCCNC(=N)N)NC(=O)[C@@H](CCSC)NC(=O)[C@@H](CCCCN)NC(=O)[C@@H](Cc1c[nH]c2ccccc12)NC(=O)[C@@H](CCCCN)NC(=O)[C@@H](CCCCN)NC(=O)[C@@H](CC(C)C)NC(=O)[C@@H](CCC(=O)O)NC(=O)CNC(=O)[C@@H](CCCNC(=N)N)NC(=O)[C@@H](C)NC(=O)[C@@H](CCC(N)=O)NC(=O)CNC(=O)[C@@H](CC(C)C)NC(=O)[C@@H](CCCNC(=N)N)NC(=O)[C@@H](C)NC(=O)[C@@H](CCC(=O)O)NC(=O)[C@@H](CC(C)C)NC(=O)[C@@H](CCCNC(=N)N)NC(=O)[C@@H](CCC(=O)O)NC(=O)[C@@H](CC(C)C)NC(=O)[C@@H](CCC(=O)O)NC(=O)[C@@H](CCC(=O)O)NC(=O)[C@@H](CCCNC(=N)N)NC(=O)[C@@H](C)NC(=O)[C@@H](CCC(=O)O)NC(=O)[C@@H](C)NC(=O)[C@H](N)C(C)C)[C@H](C)CC)C(=O)N[C@H](CCC(N)=O)C(=O)N[C@H](CCCNC(=N)N)C(=O)O` [ST-13], the “cytotoxic activity compared with other peptides” value in series [1] was “comparable activity to ST-11, and superior activity to ST-3”. Further, the pEC50 is over 6.00 in series [2], 4.75 in series [3] and over 6.00 in series [4]. Also, the “cytotoxic activity in tumor / neoplastic cells” value in series [5] is “significant cytotoxic activity”.

As for “RQIKIWFQNRRMKWKKLEGEAQGLEARNRELKERAESV [ST-5]”, the “cytotoxic activity compared with other peptides” value in series [1] (setting [6]) is reported as “attenuated but not ablated”.

In the case of “RQIKIWFQNRRMKWKKLEGECQGLEARNRELKERAEAV [ST-6]”, in series [1] (setting [6]), the “cytotoxic activity compared with other peptides” value was “comparable activity to ST-3”.

Take “RQIKIWFQNRRMKWKKLEGECQGLEARNRELKERAESV [ST-3, reference compound]”: the “cytotoxic activity in tumor / neoplastic cells” value in series [5] is recorded as “induces cell death in neoplastic cells”.

For the compound “RQIKIWFQNRRMKWKKLEGEGQGLEARNRELKERAESV [ST-4]”, the “cytotoxic activity compared with other peptides” value in series [1] (setting [6]) is “attenuated but not ablated”.

On to “RQIKIWFQNRRMKWKKLEGRAQGLRAELRELEERAEAV [ST-11]”, for which the “cytotoxic activity compared with other peptides” value in series [1] (setting [6]) is “improved cytotoxic activity over ST-3”.

“RQIKIWFQNRRMKWKKLEGRCQGLRAELRELEERAEAV [ST-10]”: the “cytotoxic activity compared with other peptides” value in series [1] (setting [6]) is reported as “comparable to that of ST-9”.

For the compound “RQIKIWFQNRRMKWKKLEGRCQGLRAENRELEERAESV [ST-9]”, the “cytotoxic activity compared with other peptides” value in series [1] (setting [6]) is “significantly increased over that of ST-3”.

What is called pEC50 is the negative decadic logarithm of the EC50, by convention in mol/L. The low end stands for a high EC50, the high end for a low EC50.
